The values below come from patent publication US8845999B2 (The Regents of the University of California, priority 2005, dated 2014).

In series [1] the test system is T1, Hexokinase.
T1 construct: Hexokinase Ki; other: Bessel (1972); Hexokinase Vmax; D-glucose = 1; hexokinase maximum velocity lower than that for D-glucose
Details: Hexokinase Vmax: unit not given here. The conditions noted are these: Bessel (1972), cited from earlier work; for Hexokinase Vmax: D-glucose = 1.

In series [2] the target is T2, human GLUT1 (Homo sapiens, UniProt P11166).
T2 construct: host or cells: human erythrocytes (endogenous transporter)
T2 sequence (P11166 1-492): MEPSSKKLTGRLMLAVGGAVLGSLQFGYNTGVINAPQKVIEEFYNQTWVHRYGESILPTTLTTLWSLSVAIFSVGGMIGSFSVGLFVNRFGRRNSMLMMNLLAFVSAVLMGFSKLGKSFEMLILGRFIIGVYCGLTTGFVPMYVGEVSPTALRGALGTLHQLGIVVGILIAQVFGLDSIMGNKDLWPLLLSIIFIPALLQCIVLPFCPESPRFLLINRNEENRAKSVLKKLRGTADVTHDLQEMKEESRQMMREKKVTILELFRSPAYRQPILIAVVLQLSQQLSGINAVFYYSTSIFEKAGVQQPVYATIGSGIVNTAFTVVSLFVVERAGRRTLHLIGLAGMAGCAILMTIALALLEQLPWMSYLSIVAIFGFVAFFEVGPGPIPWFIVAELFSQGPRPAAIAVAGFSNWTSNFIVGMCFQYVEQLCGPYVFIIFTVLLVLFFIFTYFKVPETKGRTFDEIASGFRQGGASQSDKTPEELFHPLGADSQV
The conditions noted are these: cited from earlier work.

Series [3] concerns Hexokinase. The series can be described thus: Hexokinase kinetics (Bessel 1972). Type of series: biochemical.
The subject of series [4] is T1, Hexokinase. As to the kind of experiment: Hexokinase kinetics (Bessel 1972). The conditions noted are these: from Table 2. Type of series: biochemical.
Series [5] concerns SGLTs. The series can be described thus: MicroPET images of rat's brain after intravenous injection of radiofluorinated glucose derivatives. The conditions noted are these: same animal, images 50-70 min after intravenous injection, FIG. 7. The method, then:
A bolus of a radiolabeled tracer is administered to a non-human primate, rodent, or other non-human mammal, intravenously or orally, and the distribution of tracer transport activity is followed by radiographic means, e.g., PET, microPET and/or SPECT. For PET, an intravenous dose of the tracer contains ˜200 μC/Kg (body weight) methyl 4-[^18F]fluoro-4-deoxy-D-glucopyranoside dissolved in <1 ml saline. […] The identity of each organ and tissue taking up the tracer is confirmed by CT scans.
FIG. 7 presents MicroPET images of a rat's brain after injection of radiofluorinated glucose derivatives. […] These experiments were performed in the same animal at three different occasions. […] The images were acquired using a Concorde 220 microPET camera (Siemens/CTI, Knoxville, Tenn.). The animal was kept under anesthesia with 2% isoflurane in oxygen during all three experiments. Injectable solutions of all radiotracers were prepared in normal saline (0.9% NaCl).

Series [6] relates to SGLTs. The series can be described thus: Whole body PET scan of human subjects. Type of series: in vivo. The conditions noted are these: normal human subject, FIGS. 4 and 5. As to the method:
For a 50-70 kg person, 10 mC of methyl 4-deoxy-4-[^18F]fluoro-D-glucopyranoside dissolved in <1 ml saline is injected intravenously, and the distribution of the tracer is followed dynamically in whole body PET scans for up to 2 hours (up to 8 scans at different time intervals). SGLT activity in organs and tissues is determined from the tracer uptake. The anatomical location of tracer uptake in both normal subjects and cancer patients is determined using CT scans.
FIGS. 4 and 5 are nonlimiting examples of 2-[^18F]-FDG and Methyl 4[^18F]-FDG scans, respectively, of the same human subject.
FIG. 6 is a nonlimiting example of a whole body PET scan of a patient with Glucose-Galactose-Malabsorption (missing functional SGLT1 in their body), after being injected with Me-[18F]-4FDG.

The nature of series [7]: Preliminary microPET studies of brain uptake. The conditions noted are these: rodent.
In series [8] the target is T3, SGLT1 (Homo sapiens, UniProt P13866).
T3 sequence (P13866 1-664): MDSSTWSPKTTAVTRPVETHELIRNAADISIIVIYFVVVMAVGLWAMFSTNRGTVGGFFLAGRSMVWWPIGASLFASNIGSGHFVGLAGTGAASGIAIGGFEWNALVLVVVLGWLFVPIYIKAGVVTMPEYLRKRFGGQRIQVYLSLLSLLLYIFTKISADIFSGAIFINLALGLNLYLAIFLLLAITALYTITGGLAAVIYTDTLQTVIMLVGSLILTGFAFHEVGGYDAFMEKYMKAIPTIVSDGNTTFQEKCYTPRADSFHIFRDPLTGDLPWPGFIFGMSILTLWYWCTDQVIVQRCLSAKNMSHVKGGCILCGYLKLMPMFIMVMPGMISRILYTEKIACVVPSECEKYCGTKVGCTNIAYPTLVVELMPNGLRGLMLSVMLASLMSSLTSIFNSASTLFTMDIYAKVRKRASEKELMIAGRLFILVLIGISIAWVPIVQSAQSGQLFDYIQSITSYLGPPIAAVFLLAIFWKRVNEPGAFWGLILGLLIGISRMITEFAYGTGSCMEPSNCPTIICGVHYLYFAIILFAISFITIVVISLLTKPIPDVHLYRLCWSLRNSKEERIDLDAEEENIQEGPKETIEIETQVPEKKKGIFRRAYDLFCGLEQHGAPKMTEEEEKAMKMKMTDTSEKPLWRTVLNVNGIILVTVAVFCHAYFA
The series can be described thus: Affinity for SGLT1. Type of series: biochemical. From the text: A [^11C]-methyl-D-glucoside has been synthesized and biologically evaluated as a tracer of sodium dependent glucose transporters. […] A commentary on this paper was published in the same issue of the journal. […] In addition, three ^18F-fluoro-n-alkyl glucosides have been synthesized and evaluated as potential substrates for sodium/glucose cotransporters. […] There are limitations with these probes in that the lifetime of [^11C] is shorter than that of [^18F]
Optionally, additional information can be obtained by also administering one or more pharmacological or other agents to the animal, and monitoring the effect of the agent(s) on tracer uptake and distribution. Nonlimiting examples of suitable agents, include sodium ion, glucose, galactose, and phlorizin. […] Any therapeutic agent can also be used to evaluate its potential role and in vivo activity on SGLTs in various organs, using in vivo competitive kinetics with the radiolabeled tracer.

The subject of series [9] is SGLT1. The conditions noted are these: pumped into cells by SGLT1; cited from earlier work.
Substrate in series [10]: O=C[C@H](O)[C@@H](O)[C@H](O)[C@H](O)CO
The series can be described thus: Kinetics of halogenated hexose transport by human SGLT1 expressed in Xenopus laevis oocytes, electrophysiological assay. The conditions noted are these: other: human SGLT1 in Xenopus laevis oocytes. It counts as cell-based. From the text:
(§1) We have expressed human SGLT1 in the Xenopus laevis oocyte expression system and measured the kinetics of halogenated hexose transport using standard electrophysiological assays (see Diez-Sampedro et al. J. Biological Chemistry, 2001, 276: 49188-49194). Table 2 presents kinetic measurements of the SGLT1 affinities of various sugars. […] “Km.” is the Michaelis-Menten constant and refers to the ability of a sugar to be a substrate for a specific enzyme or transporter. The lower the Km, the better the substrate. “Vmax” refers to the maximum velocity of transport (or enzymatic reaction). Km is the concentration of substrate at ½ Vmax. “Ki” is an inhibition constant for a specific enzyme or transporter, obtained by competitive kinetics against a known substrate.

Substrate in series [11]: O=C[C@H](O)[C@@H](O)[C@@H](O)[C@H](O)CO
Described as above. The conditions noted are these: other: human SGLT1 in Xenopus laevis oocytes. It counts as cell-based.
Description: as §1

The mark [12] stands for this setting: Barnett et al. 1973, read-out: inhibitor constants for sugar uptakes into human erythrocytes.
The mark [13] stands for this setting: Barnett et al. (1973), read-out: GLUT1 Ki.

Like-named read-outs stand apart in the source and are kept apart here.

As for `OCC1OC(O)C(O)C(F)C1O` (stereo not shown), in [1], the “Hexokinase Vmax” value is on record as 0.1 and the Ki is 70 mM. For the same molecule, in series [2] (setting [12]), the Ki is ~7 mM. In addition, the Ki in series [2] (setting [13]) is 7 mM. The “substrate quality for hexokinase” value in series [3] was “poor substrates for hexokinase”. In series [4], the “hexokinase affinity lower than that for D-glucose” value was found to be 400 fold and the “hexokinase maximum velocity lower than that for D-glucose” value is 10 fold.

`O=C[C@H](O)[C@@H](O)[C@@H](O)[C@H](O)CF`: in [2] (setting [12]), the Ki is ~7 mM.

As to `OC[C@H]1OC(F)[C@H](O)[C@@H](O)[C@@H]1O` (stereo partly drawn) [1-F-1-deoxy-D-glucose, 1-[^18F]fluoro-1-deoxy-D-glucose], in [2] (setting [13]), the Ki is 15 mM.

Take `OC[C@H]1OC([18F])[C@H](O)[C@@H](O)[C@@H]1O` (stereo partly drawn) [1-F-1-deoxy-D-glucose, 1-[^18F]fluoro-1-deoxy-D-glucose]: in series [3], the “substrate quality for hexokinase” value is “poor substrates for hexokinase”.

For the molecule `OC[C@H]1OC(O)[C@H](F)[C@@H](O)[C@@H]1O` (stereo partly drawn) [2-F-2-deoxy-D-glucose, 2-deoxy-2-[^18F]fluoro-D-glucose], the Ki in series [1] is 0.2 mM; in series [2] (setting [13]) it was 3.6 mM.

Take `OC[C@H]1OC(O)[C@H]([18F])[C@@H](O)[C@@H]1O` (stereo partly drawn) [2-F-2-deoxy-D-glucose, 2-deoxy-2-[^18F]fluoro-D-glucose]: the “Hexokinase Vmax” value in series [1] is listed as 0.5. In addition, the “brain uptake / crossing of the blood-brain barrier, microPET” value in series [5] was “cross the blood-brain barrier and accumulate in the brain”. In series [6], the “accumulation in the brain and elimination into the urinary bladder, PET” value is “accumulated in the brain and eliminated into the urinary bladder”.

As for `O=C[C@H](O)[C@@H](O)[C@H](F)[C@H](O)CO` [4-F-4-deoxy-D-glucose], in series [1], the Ki is 84 mM.

Turning to `O=C[C@H](O)[C@@H](O)[C@H]([18F])[C@H](O)CO` [4-F-4-deoxy-D-glucose], in series [1], the “Hexokinase Vmax” value was 0.1. The “uptake into brain, microPET” value in [7] was “taken up rapidly into rodent brains”. In addition, the “substrate quality for hexokinase” value in series [3] is reported as “poor substrates for hexokinase”. In addition, in [4], the “hexokinase affinity lower than that for D-glucose” value was 400 fold and the “hexokinase maximum velocity lower than that for D-glucose” value was determined as 10 fold.

As to `O=C[C@H](O)[C@@H](O)[C@H](O)[C@H](O)CF` [6-F-4-deoxy-D-glucose], the Ki was 1.3 mM in series [2] (setting [12]) and 1 mM in series [2] (setting [13]).

Take `O=C[C@H](O)[C@@H](O)[C@H](O)[C@H](O)C[18F]` [6-F-4-deoxy-D-glucose]: the “Hexokinase Vmax” value in [1] was 0. For the same molecule, the “substrate quality for hexokinase” value in series [3] is on record as “poor substrates for hexokinase”.

Take `O=C[C@H](O)[C@@H](O)[C@@H](O)[C@H](O)CO` [D-galactose]: in series [2] (setting [13]), the Ki is 90 mM.

Regarding `O=C[C@H](O)[C@@H](O)[C@H](O)[C@H](O)CO` [D-glucose], in [1], the “Hexokinase Vmax” value is 1. Besides, the Ki in series [1] was 0.2 mM; in [2] (setting [12]), ~7 mM; in series [2] (setting [13]), 6 mM.

As usually defined, the Km is the substrate concentration at which the rate is half of its maximum. As to `COC1O[C@H](CO)[C@@H](F)[C@H](O)[C@H]1O` (stereo partly drawn) [Me-4-[^18F]-FDG, methyl 4-deoxy-4-[^18F]fluoro-D-glucopyranoside], the Km in series [8] was 50 µM.

Take `CO[C@H]1O[C@H](CO)[C@@H](O)[C@H](O)[C@H]1O` [alpha-methyl-D-glucopyranoside]: the “concentration in cells above plasma concentrations” value in [9] is on record as ≤ 800 fold.

B1: human SGLT1 (Homo sapiens) (protein)
chain: T3 sequence (P13866 1-664)
notes: expressed in transfected cells; host or cells: Xenopus laevis oocytes
B1: the Km in [10] is 500 µM; in series [11], 600 µM.
